Consider 6 compounds from patent US9302999B2, “Substituted triazoles as herbicides” (E. I. DU PONT DE NEMOURS AND COMPANY, priority 2012, dated 2016).

Assay type in all cases: in vivo
The test system of test [1] is ryegrass, Italian (Italian ryegrass, Lolium multiflorum). Nature of the test: Test F pre-/postemergence: ryegrass, Italian. The source says: (§1) Seeds of plant species selected from corn (Zea mays), soybean (Glycine max), velvetleaf (Abutilon theophrasti), lambsquarters (Chenopodium album), poinsettia, wild (wild poinsettia, Euphorbia heterophylla), pigweed, palmer (palmer pigweed, Amaranthus palmeri), waterhemp (common waterhemp, Amaranthus rudis), surinam grass (Brachiaria decumbens), crabgrass, Brazil (Brazilian crabgrass, Digitaria horizontalis), panicum, fall (fall panicum Panicum dichotomiflorum), crabgrass, large (large crabgrass, Digitaria sanguinalis), foxtail, giant (giant foxtail, Setaria faberii), foxtail, green (green foxtail Setaria viridis), goosegrass (Eleusine indica), ragweed (common ragweed, Ambrosia elatior), barnyardgrass (Echinochloa crus-galli), sandbur (southern sandbur, Cenchrus echinatus), arrowleaf sida (Sida rhombifolia), ryegrass, Italian (Italian ryegrass, Lolium multiflorum), dayflower, VA (Virginia (VA) dayflower, Commelina virginica), field bindweed (Convolvulus arvensis), cocklebur (common cocklebur, Xanthium strumarium), morningglory (Ipomoea coccinea), nightshade (eastern black nightshade, Solanum ptycanthum), kochia (Kochia scoparia), nutsedge, yellow (yellow nutsedge, Cyperus esculentus), johnsongrass (Sorghum halepense), smartweed (ladysthumb smartweed, Polygonum persicaria), and beggarticks (hairy beggarticks, Bidens pilosa), were planted into a silt loam soil and treated preemergence with test chemicals formulated in a non-phytotoxic solvent mixture which included a surfactant. At the same time, plants selected from these crop and weed species and also pigweed (Amaranthus retroflexus), waterhemp_RES1 (ALS/Triazine resistant common waterhemp, Amaranthus rudis) and waterhemp_RES2 (ALS/HPPD resistant common waterhemp, Amaranthus rudis) were planted in pots containing a planting medium comprising spaghnum peat moss, vermiculite, wetting agent and starter nutrients treated with postemergence applications of some of the test chemicals formulated in the same manner. Plants ranged in height from 2 to 18 cm for postemergence treatments (1- to 4-leaf stage).
(§2) Treated plants and controls were maintained in a greenhouse for 14 to 21 days, after which time all species were compared to controls and visually evaluated. Plant response ratings, summarized in Table E, are based on a scale of 0 to 100 where 0 is no effect and 100 is complete control. A dash (-) response means no test result.

The test system of test [2] is pigweed, palmer (palmer pigweed, Amaranthus palmeri). Nature of the test: Test F pre-/postemergence: pigweed, palmer.
Source text: as §1, §2

The test system of test [3] is crabgrass, Brazil (Brazilian crabgrass, Digitaria horizontalis). Nature of the test: Test F pre-/postemergence: crabgrass, Brazil.
Source text: as §1, §2

The test system of test [4] is nutsedge, yellow (yellow nutsedge, Cyperus esculentus). Nature of the test: Test F pre-/postemergence: nutsedge, yellow. As to conditions: Preemergence.
Source text: as §1, §2

The test system of test [5] is surinam grass (Brachiaria decumbens). Nature of the test: Test F pre-/postemergence: surinam grass. As to conditions: Preemergence.
Source text: as §1, §2

Test [6] relates to ragweed (common ragweed, Ambrosia elatior). Nature of the test: Test F pre-/postemergence: ragweed. The conditions noted are these: Preemergence.
Source text: as §1, §2

Test [7] concerns Russian thistle (Salsola iberica). Nature of the test: Test D pre-/postemergence: Russian thistle. A digest of the protocol:
(§3)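 We sprayed chemicals in a surfactant-containing solvent onto silt loam at planting (preemergence) and onto 1- to 4-leaf seedlings (postemergence). Fourteen to 21 days later, each species was rated visually from 0 to 100 relative to controls.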

Test [8] has as its system bluegrass (annual bluegrass, Poa annua). Nature of the test: Test D pre-/postemergence: bluegrass. A digest of the protocol: as §3
Test [9] deals with sedge, umbrella (small-flower umbrella sedge, Cyperus difformis). Nature of the test: Test C flooded paddy test: sedge, umbrella. The conditions noted are these: scale 0 to 100 (0 no effect, 100 complete control). Put shortly:
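Rating: visual, 0–100 (100 = complete control), versus untreated controls after 13 to 15 greenhouse days. Treatment went into paddy water held at 3 cm over the soil, on plants grown to two leaves.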

Where [10] appears, read: Postemergence, 8 g ai/ha, scale 0 to 100.
Where [11] appears, read: Postemergence, 16 g ai/ha, scale 0 to 100.
The mark [12] stands for this setting: Postemergence, 31 g ai/ha, scale 0 to 100.
Setting [13] is: Postemergence, 62 g ai/ha, scale 0 to 100.
The mark [14] stands for this setting: Postemergence, 125 g ai/ha, scale 0 to 100.
Where [15] appears, read: Preemergence, 16 g ai/ha, scale 0 to 100, 0 no effect, 100 complete control.
Where [16] appears, read: Preemergence, 31 g ai/ha, scale 0 to 100, 0 no effect, 100 complete control.
The mark [17] stands for this setting: Preemergence, 125 g ai/ha, scale 0 to 100.
Setting [18] is: Preemergence, 250 g ai/ha, scale 0 to 100.
Setting [19] is: 16 g ai/ha, scale 0 to 100, 0 no effect, 100 complete control.
[20] abbreviates: 31 g ai/ha, scale 0 to 100, 0 no effect, 100 complete control.
The mark [21] stands for this setting: Postemergence, 31 g ai/ha, scale 0 to 100 (0 no effect, 100 complete control).
[22] abbreviates: Postemergence, 62 g ai/ha, scale 0 to 100 (0 no effect, 100 complete control).
Where [23] appears, read: Postemergence, 125 g ai/ha, scale 0 to 100, 0 no effect, 100 complete control.
The mark [24] stands for this setting: Postemergence, 250 g ai/ha, scale 0 to 100 (0 no effect, 100 complete control).
Where [25] appears, read: Preemergence, 62 g ai/ha, scale 0 to 100.
[26] abbreviates: Flood (flooded paddy test), 125 g ai/ha, visual rating after 13 to 15 days.
Where [27] appears, read: Flood (flooded paddy test), 250 g ai/ha, visual rating after 13 to 15 days.
[28] abbreviates: Postemergence, 250 g ai/ha, scale 0 to 100.

Consider `Cc1nn(-c2ccnc(Cl)c2)nc1Cc1ccnc(C(F)(F)F)c1` [Compound 141], for which the “Plant response rating, Ryegrass, Italian” value stood at 10 in test [1] (setting [10]); 10 in [1] (setting [11]); 15 in [1] (setting [12]); 25 in test [1] (setting [13]); 40 in test [1] (setting [14]). The “Plant response rating, Pigweed, Palmer” value is recorded as 95 in test [2] (setting [10]); 95 in test [2] (setting [11]); 95 in test [2] (setting [12]); 100 in [2] (setting [13]); 100 in test [2] (setting [14]). Also, the “Plant response rating, Crabgrass, Brazil” value turned out to be 70 in [3] (setting [10]); 80 in [3] (setting [11]); 95 in [3] (setting [12]); 95 in [3] (setting [13]); 95 in test [3] (setting [14]).
Consider `COc1nn(-c2cccc(F)c2)nc1Cc1ccnc(C(F)(F)F)c1` [Compound 139], for which the “Plant response rating, Ryegrass, Italian” value in test [1] (setting [15]) is recorded as 0; in test [1] (setting [16]), 5; in [1] (setting [17]) it was 30; in [1] (setting [18]), 95. Further, the “Plant response rating, Nutsedge, Yellow” value in [4] (setting [19]) is 0; in test [4] (setting [20]), 0; in test [4] (125 g ai/ha, scale 0 to 100), 0; in [4] (250 g ai/ha, scale 0 to 100), 0. Besides, the “Plant response rating, Surinam Grass” value was found to be 0 in test [5] (setting [19]); 0 in test [5] (setting [20]); 75 in test [5] (125 g ai/ha, scale 0 to 100); 75 in test [5] (250 g ai/ha, scale 0 to 100). In addition, the “Plant response rating, Ragweed” value in [6] (setting [19]) is listed as 0; in test [6] (setting [20]), 0; in [6] (125 g ai/ha, scale 0 to 100), 0; in test [6] (250 g ai/ha, scale 0 to 100), 0.
For `Cc1nn(-c2ccc(C(F)(F)F)cc2)nc1Oc1ccnc(C(F)(F)F)c1` [Compound 120], the “Plant response rating: Russian Thistle” value was 95 in test [7] (setting [21]), 98 in test [7] (setting [22]), 100 in test [7] (setting [23]) and 100 in [7] (setting [24]). In addition, the “Plant response rating, Russian Thistle” value worked out at 95 in test [7] (setting [11]); 100 in test [7] (setting [15]); 100 in test [7] (setting [16]); 100 in test [7] (setting [25]); 100 in [7] (setting [17]); 100 in test [7] (setting [18]). Further, the “Plant response rating: Bluegrass” value is recorded as 10 in test [8] (setting [21]), 40 in [8] (setting [22]), 70 in [8] (setting [23]) and 95 in test [8] (setting [24]). Moreover, the “Plant response rating, Bluegrass” value came out at 10 in [8] (setting [11]); 0 in test [8] (setting [15]); 100 in [8] (setting [16]); 100 in [8] (setting [25]); 100 in test [8] (setting [17]); 100 in [8] (setting [18]). Moreover, the “Plant response rating, Sedge, Umbrella” value was determined as 90 in test [9] (setting [26]); 90 in test [9] (setting [27]); 85 in test [9] (Flood, 62 g ai/ha).
With `Cc1nn(-c2ccc(C(F)(F)F)cn2)nc1Oc1ccnc(C(F)(F)F)c1` [Compound 23], the “Plant response rating: Russian Thistle” value in test [7] (setting [21]) worked out at 50; in [7] (setting [22]), 70; in [7] (setting [23]), 90; in test [7] (setting [24]), 100. The “Plant response rating, Russian Thistle” value in test [7] (setting [11]) is on record as 50. In addition, the “Plant response rating: Bluegrass” value in test [8] (setting [21]) worked out at 20; in test [8] (setting [22]), 25; in test [8] (setting [23]), 30; in test [8] (setting [24]), 40. Besides, in [8] (setting [11]), the “Plant response rating, Bluegrass” value amounted to 20. The “Plant response rating, Sedge, Umbrella” value in [9] (Flood (flooded paddy test), 62 g ai/ha, visual rating after 13 to 15 days) came to 75; in test [9] (setting [26]), 80; in test [9] (setting [27]), 90; in test [9] (Flood, 31 g ai/ha), 60.
For the compound `CCCc1nn(-c2ccc(F)c(F)c2)nc1Oc1ccnc(C(F)(F)F)c1` [Compound 172], the “Plant response rating, Ryegrass, Italian” value in [1] (setting [28]) is listed as 50; in test [1] (setting [12]), 20; in test [1] (setting [14]), 40; in test [1] (setting [16]), 35; in [1] (setting [17]) it was 100; in [1] (setting [18]), 100. Further, the “Plant response rating, Pigweed, Palmer” value in test [2] (setting [28]), in test [2] (setting [12]), in test [2] (setting [14]), in test [2] (setting [16]), in test [2] (setting [17]) and in [2] (setting [18]) was 100 throughout. For the same compound, the “Plant response rating, Crabgrass, Brazil” value in [3] (setting [28]) is reported as 90; in test [3] (setting [12]), 50; in test [3] (setting [14]), 70; in test [3] (setting [16]) it was 100; in test [3] (setting [17]) it was 100; in test [3] (setting [18]), 100. Moreover, the “Plant response rating, Nutsedge, Yellow” value is reported as 25 in test [4] (setting [20]); 25 in [4] (125 g ai/ha, scale 0 to 100); 25 in test [4] (250 g ai/ha, scale 0 to 100). Also, the “Plant response rating, Surinam Grass” value in test [5] (setting [20]) turned out to be 20; in test [5] (125 g ai/ha, scale 0 to 100) it was 35; in test [5] (250 g ai/ha, scale 0 to 100) it was 98.
Take `CCc1nn(-c2ccc(F)c(F)c2)nc1Oc1ccnc(C(F)(F)F)c1` [Compound 171]: the “Plant response rating, Ryegrass, Italian” value in [1] (setting [15]) is 0; in test [1] (setting [16]), 0; in test [1] (setting [17]) it was 25; in test [1] (setting [18]), 50. For the same compound, the “Plant response rating, Pigweed, Palmer” value is given as 0 in test [2] (setting [15]), 0 in [2] (setting [16]), 100 in [2] (setting [17]) and 100 in test [2] (setting [18]). The “Plant response rating, Crabgrass, Brazil” value in test [3] (setting [15]) is 0; in test [3] (setting [16]) it was 98; in test [3] (setting [25]) it was 100; in [3] (setting [17]), 100; in [3] (setting [18]), 100. Besides, the “Plant response rating, Nutsedge, Yellow” value is given as 0 in [4] (setting [19]); 0 in test [4] (setting [20]); 0 in test [4] (125 g ai/ha, scale 0 to 100); 0 in [4] (250 g ai/ha, scale 0 to 100). For the same compound, the “Plant response rating, Surinam Grass” value in test [5] (setting [19]) is recorded as 0; in [5] (setting [20]), 0; in [5] (125 g ai/ha, scale 0 to 100), 10; in test [5] (250 g ai/ha, scale 0 to 100), 30.
